Assay results as given in ChEMBL document CHEMBL1134146, “Development of specific CXCR4 inhibitors possessing high selectivity indexes as well as complete stability in serum based on an anti-HIV peptide T140” (Bioorg Med Chem Lett, 2001).

What was measured:
[1] = Selectivity index determined for CC50 (test I) to EC50 x 10e3; assay type: functional
[2] = Selectivity index determined for CC50 (test II) to EC50 x 10e3; assay type: functional
MT4 = assay: Cytotoxic concentration of compound required to reduce the viability of mock infected MT-4 cells on the MTT assay in test I; assay type: functional; conditions: Homo sapiens
PBMC (Homo sapiens) = assay: Cytotoxic concentration of compound determined by the […] exclusion staining method in PBMC by test II

Compound | SI [1] | SI [2] | CC50 (MT4) | CC50 (PBMC (Homo sapiens))
NCCCC[C@@H]1NC(=O)[C@@H](CCCCN)NC(=O)[C@H](CCCN=C(N)N)NC(=O)[C@@H](Cc2ccc(O)cc2)NC(=O)[C@H](NC(=O)[C@@H](NC(=O)[C@H](CCCN=C(N)N)NC(=O)[C@@H](N)CCCNC(N)=O)c2ccc3ccccc3c2)CSSC[C@H](C(=O)N[C@@H](CCCN=C(N)N)C(=O)O)NC(=O)[C@H](CCCNC(N)=O)NC(=O)[C@H](CCCNC(N)=O)NC(=O)[C@H](Cc2ccc(O)cc2)NC(=O)[C@H]2CCCN2C1=O | > 1.5 | > 12 | – | –
NCCCC[C@@H]1NC(=O)[C@H](CCCN=C(N)N)NC(=O)[C@H](Cc2ccc(O)cc2)NC(=O)[C@@H](NC(=O)[C@@H](NC(=O)[C@H](CCCN=C(N)N)NC(=O)[C@@H](N)CCCNC(N)=O)c2ccc3ccccc3c2)CSSC[C@@H](C(=O)N[C@@H](CCCN=C(N)N)C(=O)O)NC(=O)[C@H](CCCNC(N)=O)NC(=O)[C@H](CCCNC(N)=O)NC(=O)[C@H](Cc2ccc(O)cc2)NC(=O)[C@@H]2CCCN2C(=O)[C@@H](CCCCN)NC1=O | – | – | > 100 µM | > 800 µM
NCCCC[C@@H]1NC(=O)[C@H](CCCNC(N)=O)NC(=O)[C@H](Cc2ccc(O)cc2)NC(=O)[C@@H](NC(=O)[C@@H](NC(=O)[C@H](CCCN=C(N)N)NC(=O)[C@@H](N)CCCNC(N)=O)c2ccc3ccccc3c2)CSSC[C@@H](C(=O)N[C@@H](CCCN=C(N)N)C(N)=O)NC(=O)[C@H](CCCNC(N)=O)NC(=O)[C@H](CCCN=C(N)N)NC(=O)[C@H](Cc2ccc(O)cc2)NC(=O)[C@@H]2CCCN2C(=O)[C@@H](CCCCN)NC1=O | – | – | > 100 µM | 350 µM
NCCCC[C@@H]1NC(=O)[C@H](CCCN=C(N)N)NC(=O)[C@H](Cc2ccc(O)cc2)NC(=O)[C@@H](NC(=O)[C@@H](NC(=O)[C@H](CCCN=C(N)N)NC(=O)[C@@H](N)CCCN=C(N)N)c2ccc3ccccc3c2)CSSC[C@@H](C(=O)N[C@@H](CCCN=C(N)N)C(N)=O)NC(=O)[C@H](CCCNC(N)=O)NC(=O)[C@H](CCCN=C(N)N)NC(=O)[C@H](Cc2ccc(O)cc2)NC(=O)[C@@H]2CCCN2C(=O)[C@@H](CCCNC(N)=O)NC1=O | – | – | > 100 µM | 98 µM
NCCCC[C@@H]1NC(=O)[C@H](CCCN=C(N)N)NC(=O)[C@H](Cc2ccc(O)cc2)NC(=O)[C@@H](NC(=O)[C@@H](NC(=O)[C@H](CCCN=C(N)N)NC(=O)[C@@H](N)CCCNC(N)=O)c2ccc3ccccc3c2)CSSC[C@@H](C(=O)N[C@@H](CCCN=C(N)N)C(=O)O)NC(=O)[C@H](CCCNC(N)=O)NC(=O)[C@H](CCCN=C(N)N)NC(=O)[C@H](Cc2ccc(O)cc2)NC(=O)[C@@H]2CCCN2C(=O)[C@@H](CCCNC(N)=O)NC1=O | – | – | > 100 µM | > 800 µM
NCCCC[C@@H]1NC(=O)[C@H](CCCN=C(N)N)NC(=O)[C@H](Cc2ccc(O)cc2)NC(=O)[C@@H](NC(=O)[C@@H](NC(=O)[C@H](CCCN=C(N)N)NC(=O)[C@@H](N)CCCN=C(N)N)c2ccc3ccccc3c2)CSSC[C@@H](C(=O)N[C@@H](CCCN=C(N)N)C(=O)O)NC(=O)[C@H](CCCNC(N)=O)NC(=O)[C@H](CCCN=C(N)N)NC(=O)[C@H](Cc2ccc(O)cc2)NC(=O)[C@@H]2CCCN2C(=O)[C@@H](CCCNC(N)=O)NC1=O | – | – | > 80 µM | 110 µM
NCCCC[C@@H]1NC(=O)[C@H](CCCNC(N)=O)NC(=O)[C@H](Cc2ccc(O)cc2)NC(=O)[C@@H](NC(=O)[C@@H](NC(=O)[C@H](CCCN=C(N)N)NC(=O)[C@@H](N)CCCN=C(N)N)c2ccc3ccccc3c2)CSSC[C@@H](C(=O)N[C@@H](CCCN=C(N)N)C(=O)O)NC(=O)[C@H](CCCNC(N)=O)NC(=O)[C@H](CCCN=C(N)N)NC(=O)[C@H](Cc2ccc(O)cc2)NC(=O)[C@@H]2CCCN2C(=O)[C@@H](CCCNC(N)=O)NC1=O | – | – | > 100 µM | > 800 µM
NCCCC[C@@H]1NC(=O)[C@H](CCCNC(N)=O)NC(=O)[C@H](Cc2ccc(O)cc2)NC(=O)[C@@H](NC(=O)[C@@H](NC(=O)[C@H](CCCN=C(N)N)NC(=O)[C@@H](N)CCCNC(N)=O)c2ccc3ccccc3c2)CSSC[C@@H](C(=O)N[C@@H](CCCN=C(N)N)C(=O)O)NC(=O)[C@H](CCCNC(N)=O)NC(=O)[C@H](CCCN=C(N)N)NC(=O)[C@H](Cc2ccc(O)cc2)NC(=O)[C@@H]2CCCN2C(=O)[C@@H](CCCCN)NC1=O | – | – | > 100 µM | > 800 µM
NCCCC[C@@H]1NC(=O)[C@H](CCCNC(N)=O)NC(=O)[C@H](Cc2ccc(O)cc2)NC(=O)[C@@H](NC(=O)[C@@H](NC(=O)[C@H](CCCN=C(N)N)NC(=O)[C@@H](N)CCCN=C(N)N)c2ccc3ccccc3c2)CSSC[C@@H](C(=O)N[C@@H](CCCN=C(N)N)C(N)=O)NC(=O)[C@H](CCCNC(N)=O)NC(=O)[C@H](CCCN=C(N)N)NC(=O)[C@H](Cc2ccc(O)cc2)NC(=O)[C@@H]2CCCN2C(=O)[C@@H](CCCNC(N)=O)NC1=O | – | – | > 100 µM | > 800 µM
NCCCC[C@@H]1NC(=O)[C@H](CCCN=C(N)N)NC(=O)[C@H](Cc2ccc(O)cc2)NC(=O)[C@@H](NC(=O)[C@@H](NC(=O)[C@H](CCCN=C(N)N)NC(=O)[C@@H](N)CCCNC(N)=O)c2ccc3ccccc3c2)CSSC[C@@H](C(=O)N[C@@H](CCCN=C(N)N)C(N)=O)NC(=O)[C@H](CCCNC(N)=O)NC(=O)[C@H](CCCNC(N)=O)NC(=O)[C@H](Cc2ccc(O)cc2)NC(=O)[C@@H]2CCCN2C(=O)[C@@H](CCCCN)NC1=O | – | – | > 100 µM | 470 µM
Nc1ccn([C@H]2CC[C@@H](CO)O2)c(=O)n1 [ZALCITABINE] | 0.16 | – | 14 µM | –
NCCCC[C@@H]1NC(=O)[C@H](CCCNC(N)=O)NC(=O)[C@H](Cc2ccc(O)cc2)NC(=O)[C@@H](NC(=O)[C@@H](NC(=O)[C@H](CCCN=C(N)N)NC(=O)[C@@H](N)CCCN=C(N)N)c2ccc3ccccc3c2)CSSC[C@@H](C(=O)N[C@@H](CCCN=C(N)N)C(N)=O)NC(=O)[C@H](CCCNC(N)=O)NC(=O)[C@H](CCCN=C(N)N)NC(=O)[C@H](Cc2ccc(O)cc2)NC(=O)[C@@H]2CCCN2C(=O)[C@@H](CCCCN)NC1=O | – | – | > 100 µM | 410 µM
NCCCC[C@@H]1NC(=O)[C@@H](CCCCN)NC(=O)[C@H](CCCN=C(N)N)NC(=O)[C@@H](Cc2ccc(O)cc2)NC(=O)[C@H](NC(=O)[C@@H](NC(=O)[C@H](CCCN=C(N)N)NC(=O)[C@@H](N)CCCN=C(N)N)c2ccc3ccccc3c2)CSSC[C@H](C(=O)N[C@@H](CCCN=C(N)N)C(N)=O)NC(=O)[C@H](CCCNC(N)=O)NC(=O)[C@H](CCCN=C(N)N)NC(=O)[C@H](Cc2ccc(O)cc2)NC(=O)[C@H]2CCCN2C1=O | 0.14 | – | – | –
NCCCC[C@@H]1NC(=O)[C@H](CCCNC(N)=O)NC(=O)[C@H](Cc2ccc(O)cc2)NC(=O)[C@@H](NC(=O)[C@@H](NC(=O)[C@H](CCCN=C(N)N)NC(=O)[C@@H](N)CCCN=C(N)N)c2ccc3ccccc3c2)CSSC[C@@H](C(=O)N[C@@H](CCCN=C(N)N)C(=O)O)NC(=O)[C@H](CCCNC(N)=O)NC(=O)[C@H](CCCN=C(N)N)NC(=O)[C@H](Cc2ccc(O)cc2)NC(=O)[C@@H]2CCCN2C(=O)[C@@H](CCCCN)NC1=O | – | – | > 80 µM | 510 µM
NCCCC[C@@H]1NC(=O)[C@H](CCCN=C(N)N)NC(=O)[C@H](Cc2ccc(O)cc2)NC(=O)[C@@H](NC(=O)[C@@H](NC(=O)[C@H](CCCN=C(N)N)NC(=O)[C@@H](N)CCCN=C(N)N)c2ccc3ccccc3c2)CSSC[C@@H](C(=O)N[C@@H](CCCN=C(N)N)C(N)=O)NC(=O)[C@H](CCCNC(N)=O)NC(=O)[C@H](CCCN=C(N)N)NC(=O)[C@H](Cc2ccc(O)cc2)NC(=O)[C@@H]2CCCN2C(=O)[C@@H](CCCCN)NC1=O | – | – | 10 µM | –
NCCCC[C@@H]1NC(=O)[C@H](CCCN=C(N)N)NC(=O)[C@H](Cc2ccc(O)cc2)NC(=O)[C@@H](NC(=O)[C@@H](NC(=O)[C@H](CCCN=C(N)N)NC(=O)[C@@H](N)CCCN=C(N)N)c2ccc3ccccc3c2)CSSC[C@@H](C(=O)N[C@@H](CCCN=C(N)N)C(N)=O)NC(=O)[C@H](CCCNC(N)=O)NC(=O)[C@H](CCCNC(N)=O)NC(=O)[C@H](Cc2ccc(O)cc2)NC(=O)[C@@H]2CCCN2C(=O)[C@@H](CCCNC(N)=O)NC1=O | – | – | > 100 µM | 680 µM
NCCCC[C@@H]1NC(=O)[C@H](CCCNC(N)=O)NC(=O)[C@H](Cc2ccc(O)cc2)NC(=O)[C@@H](NC(=O)[C@@H](NC(=O)[C@H](CCCN=C(N)N)NC(=O)[C@@H](N)CCCN=C(N)N)c2ccc3ccccc3c2)CSSC[C@@H](C(=O)N[C@@H](CCCN=C(N)N)C(N)=O)NC(=O)[C@H](CCCNC(N)=O)NC(=O)[C@H](CCCNC(N)=O)NC(=O)[C@H](Cc2ccc(O)cc2)NC(=O)[C@@H]2CCCN2C(=O)[C@@H](CCCCN)NC1=O | – | – | > 100 µM | > 400 µM
NCCCC[C@@H]1NC(=O)[C@H](CCCN=C(N)N)NC(=O)[C@H](Cc2ccc(O)cc2)NC(=O)[C@@H](NC(=O)[C@@H](NC(=O)[C@H](CCCN=C(N)N)NC(=O)[C@@H](N)CCCN=C(N)N)c2ccc3ccccc3c2)CSSC[C@@H](C(=O)N[C@@H](CCCN=C(N)N)C(=O)O)NC(=O)[C@H](CCCNC(N)=O)NC(=O)[C@H](CCCNC(N)=O)NC(=O)[C@H](Cc2ccc(O)cc2)NC(=O)[C@@H]2CCCN2C(=O)[C@@H](CCCNC(N)=O)NC1=O | – | – | > 100 µM | > 800 µM
NCCCC[C@@H]1NC(=O)[C@H](CCCN=C(N)N)NC(=O)[C@H](Cc2ccc(O)cc2)NC(=O)[C@@H](NC(=O)[C@@H](NC(=O)[C@H](CCCN=C(N)N)NC(=O)[C@@H](N)CCCNC(N)=O)c2ccc3ccccc3c2)CSSC[C@@H](C(=O)N[C@@H](CCCN=C(N)N)C(N)=O)NC(=O)[C@H](CCCNC(N)=O)NC(=O)[C@H](CCCN=C(N)N)NC(=O)[C@H](Cc2ccc(O)cc2)NC(=O)[C@@H]2CCCN2C(=O)[C@@H](CCCNC(N)=O)NC1=O | – | – | > 100 µM | 500 µM
NCCCC[C@@H]1NC(=O)[C@H](CCCNC(N)=O)NC(=O)[C@H](Cc2ccc(O)cc2)NC(=O)[C@@H](NC(=O)[C@@H](NC(=O)[C@H](CCCN=C(N)N)NC(=O)[C@@H](N)CCCN=C(N)N)c2ccc3ccccc3c2)CSSC[C@@H](C(=O)N[C@@H](CCCN=C(N)N)C(=O)O)NC(=O)[C@H](CCCNC(N)=O)NC(=O)[C@H](CCCNC(N)=O)NC(=O)[C@H](Cc2ccc(O)cc2)NC(=O)[C@@H]2CCCN2C(=O)[C@@H](CCCCN)NC1=O | – | – | > 100 µM | > 800 µM
